Target: T1, SHP2 protein (Homo sapiens, UniProt Q06124)
T1 sequence (Q06124 1-593): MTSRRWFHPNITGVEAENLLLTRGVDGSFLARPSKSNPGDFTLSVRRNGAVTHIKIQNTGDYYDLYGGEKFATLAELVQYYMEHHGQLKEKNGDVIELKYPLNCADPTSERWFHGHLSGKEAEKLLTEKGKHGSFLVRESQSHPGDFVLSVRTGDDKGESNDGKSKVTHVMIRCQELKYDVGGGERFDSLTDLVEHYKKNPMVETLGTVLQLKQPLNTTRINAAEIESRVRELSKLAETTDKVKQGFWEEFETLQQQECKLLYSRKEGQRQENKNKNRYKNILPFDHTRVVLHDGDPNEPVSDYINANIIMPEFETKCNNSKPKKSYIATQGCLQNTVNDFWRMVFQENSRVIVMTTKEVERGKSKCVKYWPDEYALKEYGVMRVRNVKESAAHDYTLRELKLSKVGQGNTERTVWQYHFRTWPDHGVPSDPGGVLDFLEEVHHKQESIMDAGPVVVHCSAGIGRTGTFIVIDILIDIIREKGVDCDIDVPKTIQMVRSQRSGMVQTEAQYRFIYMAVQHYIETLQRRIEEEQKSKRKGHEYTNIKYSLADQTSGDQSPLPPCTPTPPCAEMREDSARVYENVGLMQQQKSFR
Experiment: Measurement of SHP2 protein degradation in MV-4-11 cells (western blotting)
Assay type: cell-based
Design: endogenous in cells; host or cells: MV-4-11
Conditions: for SHP2 degradation (%) 10 nM / SHP2 degradation (%) 100 nM / SHP2 degradation (%) 1000 nM: MV-4-11 cells, 24 hours
In short: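 SHP2 protein levels were assessed by western blotting in MV-4-11 cells after a 24 hour compound treatment. Lysates were sonicated, centrifuged, normalized by BCA assay at 562 nm, run on Bis-tris 4-12% gels, transferred to NC membrane, probed with anti-SHPTP2 (70 kDa) and anti-GAPDH (37 kDa) antibodies, and detected on LI-COR Odyssey.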

SMILES | SHP2 degradation (%) 10 nM [%] | SHP2 degradation (%) 100 nM [%] | SHP2 protein degradation activity (in words) (comment on Table 4) | SHP2 degradation (%) 1000 nM [%]
Cc1ncsc1-c1ccc(CNC(=O)[C@@H]2C[C@@H](O)CN2C(=O)[C@@H](NC(=O)C2(F)CC2)C(C)(C)C)c(OCC2CCN(C(=O)C3(C(=O)Nc4cccc(Sc5cnc(N6CCC(C)(CN)CC6)cn5)c4Cl)CC3)CC2)c1 [Example 46, (2S,4R)—N-(2-((1-(1-((3-((5-(4-(aminomethyl)-4-methylpiperidin-1-yl)pyrazin-2-yl)thio)-2-chlorophenyl)carbamoyl)cyclopropane-1-carbonyl)piperidin-4-yl)methoxy)-4-(4-methylthiazol-5-yl)benzyl)-1-((S)-2-(1-fluorocyclopropane-1-carboxamido)-3,3-dimethylbutanoyl)-4-hydroxypyrrolidine-2-carboxamide] | 0.1 | 52.3 | somewhat decreased | –
Cc1ncsc1-c1ccc(CNC(=O)[C@@H]2C[C@@H](O)CN2C(=O)[C@@H](NC(=O)C2(F)CC2)C(C)(C)C)c(OCCN2CCN(C(=O)CC(=O)Nc3cccc(Sc4cnc(N5CCC(C)(CN)CC5)cn4)c3Cl)[C@@H](C)C2)c1 [Example 63, (2S,4R)—N-(2-(2-((S)-4-(3-((3-((5-(4-(aminomethyl)-4-methylpiperidin-1-yl)pyrazin-2-yl)thio)-2-chlorophenyl)amino)-3-oxopropanoyl)-3-methylpiperazin-1-yl)ethoxy)-4-(4-methylthiazol-5-yl)benzyl)-1-((S)-2-(1-fluorocyclopropane-1-carboxamido)-3,3-dimethylbutanoyl)-4-hydroxypyrrolidine-2-carboxamide] | 90.5 | 97 | – | –
Cc1ncsc1-c1ccc(CNC(=O)[C@@H]2C[C@@H](O)CN2C(=O)[C@@H](NC(=O)C2(F)CC2)C(C)(C)C)c(OCC2CCN(C(=O)CC(=O)Nc3cccc(Sc4ncc(N5CCC(C)(CN)CC5)nc4N)c3Cl)CC2)c1 [Example 32, (2S,4R)—N-(2-((1-(3-((3-((3-amino-5-(4-(aminomethyl)-4-methylpiperidin-1-yl)pyrazin-2-yl)thio)-2-chlorophenyl)amino)-3-oxopropanoyl)piperidin-4-yl)methoxy)-4-(4-methylthiazol-5-yl)benzyl)-1-((S)-2-(1-fluorocyclopropane-1-carboxamido)-3,3-dimethylbutanoyl)-4-hydroxypyrrolidine-2-carboxamide] | 75 | 95 | – | –
Cc1ncsc1-c1ccc(CNC(=O)[C@@H]2C[C@@H](O)CN2C(=O)[C@@H](NC(=O)C2(F)CC2)C(C)(C)C)c(OCCN2CCN(C(=O)CC(=O)Nc3cccc(Sc4cnc(N5CCC(C)(CN)CC5)cn4)c3Cl)C[C@H]2C(=O)O)c1 [Example 69, (S)-4-(3-((3-((5-(4-(aminomethyl)-4-methylpiperidin-1-yl)pyrazin-2-yl)thio)-2-chlorophenyl)amino)-3-oxopropanoyl)-1-(2-(2-(((2S,4R)-1-((S)-2-(1-fluorocyclopropane-1-carboxamido)-3,3-dimethylbutanoyl)-4-hydroxypyrrolidine-2-carboxamido)methyl)-5-(4-methylthiazol-5-yl)phenoxy)ethyl)piperazine-2-carboxylic Acid] | 20 | 81.9 | – | –
Cc1ncsc1-c1ccc(CNC(=O)[C@@H]2C[C@@H](O)CN2C(=O)[C@@H](NC(=O)C2(F)CC2)C(C)(C)C)c(OCCCC2CCN(C(=O)CC(=O)Nc3cccc(Sc4ncc(N5CCC(C)(CN)CC5)nc4N)c3Cl)CC2)c1 [Example 42, (2S,4R)—N-(2-(3-(1-(3-((3-((3-amino-5-(4-(aminomethyl)-4-methylpiperidin-1-yl)pyrazin-2-yl)thio)-2-chlorophenyl)amino)-3-oxopropanoyl)piperidin-4-yl)propoxy)-4-(4-methylthiazol-5-yl)benzyl)-1-((S)-2-(1-fluorocyclopropane-1-carboxamido)-3,3-dimethylbutanoyl)-4-hydroxypyrrolidine-2-carboxamide] | 73.5 | 95.0 | – | –
Cc1ncsc1-c1ccc(CNC(=O)[C@@H]2C[C@@H](O)CN2C(=O)[C@@H](NC(=O)C2CC2)C(C)(C)C)c(OCCN2CCN(C(=O)CC(=O)Nc3cccc(Sc4cnc(N5CCC(C)(CN)CC5)cn4)c3Cl)CC2)c1 [Example 56, (2S,4R)—N-(2-(2-(4-(3-((3-((5-(4-(aminomethyl)-4-methylpiperidin-1-yl)pyrazin-2-yl)thio)-2-chlorophenyl)amino)-3-oxopropanoyl)piperazin-1-yl)ethoxy)-4-(4-methylthiazol-5-yl)benzyl)-1-((S)-2-(cyclopropanecarboxamido)-3,3-dimethylbutanoyl)-4-hydroxypyrrolidine-2-carboxamide] | 91.4 | 98.9 | – | –
Cc1ncsc1-c1ccc(CNC(=O)[C@@H]2C[C@@H](O)CN2C(=O)[C@@H](NC(=O)C2(F)CC2)C(C)(C)C)c(OCCC2CCN(C(=O)CC(=O)Nc3cccc(Sc4ncc(N5CCC(C)(CN)CC5)nc4N)c3Cl)CC2)c1 [Example 37, (2S,4R)—N-(2-(2-(1-(3-((3-((3-amino-5-(4-(aminomethyl)-4-methylpiperidin-1-yl)pyrazin-2-yl)thio)-2-chlorophenyl)amino)-3-oxopropanoyl)piperidin-4-yl)ethoxy)-4-(4-methylthiazol-5-yl)benzyl)-1-((S)-2-(1-fluorocyclopropane-1-carboxamido)-3,3-dimethylbutanoyl)-4-hydroxypyrrolidine-2-carboxamide] | 80.5 | 89.5 | – | 90.5
Cc1ncsc1-c1ccc(CNC(=O)[C@@H]2C[C@@H](O)CN2C(=O)[C@@H](NC(=O)C2(F)CC2)C(C)(C)C)c(OCCC2CCN(C(=O)CC(=O)Nc3cccc(Sc4cnc(N5CCC(C)(N)CC5)cn4)c3Cl)CC2)c1 [Example 34, (2S,4R)—N-(2-(2-(1-(3-((3-((5-(4-amino-4-methylpiperidin-1-yl)pyrazin-2-yl)thio)-2-chlorophenyl)amino)-3-oxopropanoyl)piperidin-4-yl)ethoxy)-4-(4-methylthiazol-5-yl)benzyl)-1-((S)-2-(1-fluorocyclopropane-1-carboxamido)-3,3-dimethylbutanoyl)-4-hydroxypyrrolidine-2-carboxamide] | 77 | 93.5 | – | 94
Cc1ncsc1-c1ccc(CNC(=O)[C@@H]2C[C@@H](O)CN2C(=O)[C@@H](NC(=O)C2(F)CC2)C(C)(C)C)c(OC2CC3(CCN(C(=O)CC(=O)N(C)c4cccc(Sc5cnc(N6CCC(C)(CN)CC6)cn5)c4Cl)CC3)C2)c1 [Example 51, (2S,4R)—N-(2-((7-(3-((3-((5-(4-(aminomethyl)-4-methylpiperidin-1-yl)pyrazin-2-yl)thio)-2-chlorophenyl)(methyl)amino)-3-oxopropanoyl)-7-azaspiro[3.5]nonan-2-yl)oxy)-4-(4-methylthiazol-5-yl)benzyl)-1-((S)-2-(1-fluorocyclopropane-1-carboxamido)-3,3-dimethylbutanoyl)-4-hydroxypyrrolidine-2-carboxamide] | 4.7 | 74.1 | – | –
Cc1ncsc1-c1ccc(CNC(=O)[C@@H]2C[C@@H](O)CN2C(=O)[C@@H](NC(=O)C2(F)CC2)C(C)(C)C)c(OCCCC2CCN(CC(=O)Nc3cccc(Sc4cnc(N5CCC(C)(CN)CC5)cn4)c3Cl)CC2)c1 [Example 71, (2S,4R)—N-(2-(3-(1-(2-((3-((5-(4-(aminomethyl)-4-methylpiperidin-1-yl)pyrazin-2-yl)thio)-2-chlorophenyl)amino)-2-oxoethyl)piperidin-4-yl)propoxy)-4-(4-methylthiazol-5-yl)benzyl)-1-((S)-2-(1-fluorocyclopropane-1-carboxamido)-3,3-dimethylbutanoyl)-4-hydroxypyrrolidine-2-carboxamide] | −1.0 | 29.0 | – | 87.5
Cc1ncsc1-c1ccc(CNC(=O)[C@@H]2C[C@@H](O)CN2C(=O)[C@@H](NC(=O)C2(F)CC2)C(C)(C)C)c(OCCCN2CCC(CC(=O)Nc3cccc(Sc4ncc(N5CCC(C)(CN)CC5)nc4N)c3Cl)CC2)c1 [Example 10, (2S,4R)—N-(2-(3-(4-(2-((3-((3-amino-5-(4-(aminomethyl)-4-methylpiperidin-1-yl)pyrazin-2-yl)thio)-2-chlorophenyl)amino)-2-oxoethyl)piperidin-1-yl)propoxy)-4-(4-methylthiazol-5-yl)benzyl)-1-((S)-2-(1-fluorocyclopropane-1-carboxamido)-3,3-dimethylbutanoyl)-4-hydroxypyrrolidine-2-carboxamide] | 33.7 | 90.9 | – | 95.0
